“Also recorded” adds a separate entry of the source.
Assays:
[1] = tested on: sugen/hypoxic PAH model; details: cited from earlier work
[2] = tested on: sugen/hypoxia PAH model; assay: Metabolic intermediates analysis of lung lysate (PCA); format: in vivo, rat; details: SU2+NP versus SU2
Description: Data were acquired using the West Coast Metabolomics Center at UC Davis. Briefly, Restek corporation Rtx-5Sil MS column was used with helium mobile phase at temperature interval (50-330° C.) and flow-rate: 1 mL min-1. Injection volume was 0.5 μL at 50° C. ramped to 250° C. by 12° C. s-1. Oven temperature started at 50° C. for 1 min, then ramped at 20° C. min-1 to 330° C., and held constant for 5 min. Mass spectrometry analysis was done on a Leco Pegasus IV mass spectrometer with unit mass resolution at 17 spectra s-1 from 80-500 Da at −70 eV ionization energy and 1800 V detector voltage with a 230° C. transfer line and a 250° C. ion source. Raw data files were preprocessed directly after data acquisition and stored as ChromaTOF-specific*.peg files, as generic*.txt result files and additionally as generic ANDI MS*.cdf files. ChromaTOF vs. 2.32 was used for data preprocessing without smoothing, 3s peak width, baseline subtraction just above the noise level, and automatic mass spectral deconvolution and peak detection at signal/noise levels of 5:1 throughout the chromatogram. Apex masses were reported for use in the BinBase algorithm. Result*.txt files were exported to a data server with absolute spectra intensities and further processed by a filtering algorithm implemented in the metabolomics BinBase database.

[3] = tested on: HPASMCs; assay: Seahorse mitostress assay (OCR); format: cell-based, human; details: SIN-1 treatment
Description: (§1) For the glycostress Seahorse assay, human pulmonary artery smooth muscle cells (HPASMCs) were seeded in a 24 well Seahorse cell culture microplate at 50000/well and kept overnight to form a monolayer. On the day of experiment, the media was aspirated and cells were incubated at 37° C. in a non-CO2 incubator for 1 hour with 0.5 mL XF base medium (cat #102353-100, Agilent, Santa Clara, Calif.) supplemented with 2 mM glutamine. Glucose (56 μL, 100 mM), Oligomycin (62 μL, 100 μM) and 2-deoxyglucose (69 μL, 500 mM) was added to the flux pack wells (cat #102342-100, Agilent, Santa Clara, Calif.). ECAR (extracellular acidification rate) was then measured using Seahorse Bioscience XFe24 extracellular flux analyzer (Agilent, Santa Clara, Calif.) according to the manufacturer's protocol. For the mitostress assay, cells were prepared like the glycostress assay with the exception that the XF base incubation media was supplemented with pyruvate (1 mM), glutamine (2 mM) and glucose (10 mM). Oligomycin (56 μL, 10 μM), FCCP (62 μL, 10 μM) and Rotenone+Antimycin-A (69 μL, 5 μM) were added to the flux pack wells. OCR (oxygen consumption rate) was then identified according to the manufacturer's protocol. Data was normalized to cell number as determined by flow cytometry. All the chemicals used for these experiments, unless specified, were procured from Sigma-Aldrich.

[4] = target: T1, Akt (Rattus norvegicus, UniProt P47196); assay: Western blot of Akt nitration, phosphorylation and total nitration in lung lysate, sugen/hypoxia PAH model; format: in vivo; details: sugen/hypoxia rats two-weeks (SU2), NP 0.1 mg/kg/day i.v.
T1 construct: nitro Akt, phospho Akt and total Akt expression in the lung lysate; from tissue; host or cells: rat lung (Sprague Dawley, sugen/hypoxia model)
Description: (§2) For an analysis of the total lung protein, lung tissues were lysed as previously described. Briefly, 20-40 mg of lung tissue (human/rat) was lysed in Permeabilization Buffer mixed with protease and phosphatase inhibitor cocktails using a Fisher Homogenizer 850. The homogenate was centrifuged at 10,000 g for 10 min, and the supernatant was carefully collected. Cell membrane and cytosolic fractions were isolated using FractionPREP™ cell fraction kit (Biovision, Milpitas, Calif.) according to manufacturer's instruction. The protein concentration was measured using the BCA protein assay kit (Thermo Scientific, Rockford, Ill.). Samples were incubated with 6×Laemmli sample buffer (Boston Bioproducts Inc., Ashland, Mass.), for 5 min at 95° C., loaded on the 4-20% SDS-PAGE Mini-PROTEAN TGX Stain-Free™ gels (Bio-Rad Laboratories Inc., Hercules, Calif.) and separated by electrophoresis. Protein bands were transferred using Trans-Blot Turbo transferring system (Bio-Rad Laboratories Inc.) and then blocked with 5% bovine serum albumin in Tris-buffered saline. Membranes were probed using antibodies against Glut 4 (07-1404) from Millipore, pyruvate carboxylase (PC) (Ab229267) & peroxisome proliferator-activated receptor gamma coactivator 1-alpha (PGC-1α) (Ab191838) from Abcam, pyruvate dehydrogenase (PDH) (45-6600) from Invitrogen, phospho Akt (Ser 473) (4060S), Akt (9272S), hexokinase 1 (HK1) (C35C4), glyceraldehyde-3 phosphate dehydrogenase (GAPDH) (2118S), lactate dehydrogenase-A (LDHA) (2012S), phospho glycogen synthase kinase (GSK) 3 β (Ser9) (9336S), GSK3 β(9315S) and glucose 6-phosphate dehydrogenase (G6PD) (8866S) from Cell Signaling Technology. Mouse monoclonal anti-nitrotyrosine antibodies were obtained from Calbiochem, La Jolla, Calif. (487923). Akt Y350 NO2 antibody obtained as a custom-made antibody against Akt1-nitro (341-353) and the sequence was CGRLPF-nitroY-NQDHEK (SEQ ID NO: 2). Two peptides were developed with and without Y350 nitration. The antibody developed against nitrated peptide cleaned using non-nitrated peptide (Akt1 (341-353): […], SEQ ID NO: 3) to remove nonspecific antibodies. […] Since the quantification of the Akt nitration is not fully established by mass spectrometry, a common method was used by newly developed antibodies for the quantification of specific Y350 nitration of Akt. The reactive bands were visualized by chemiluminescent ChemiDoc™ MP Imaging System (Bio-Rad Laboratories Inc., Hercules, Calif.) and analyzed using Image Lab™ software. […] This normalization is equal to housekeeping genes normalization and rigorously evaluated by Bio-Rad company (http://www.bio-rad.com/en-us/applications-technologies/stain-free-imaging-technology?ID=NZ0G1815) and others in comparison with beta-actin normalization.

[5] = tested on: Akt; assay: as above; format: in vivo, rat; details: SU2 rats, NP 0.1 mg/kg/day i.v. two-weeks
Description: as §2

[6] = tested on: PDH; assay: Pyruvate dehydrogenase assay in lung tissue; format: in vivo, rat; details: SU2 rats, NP treatment
Description: Lung tissue was lysed using RIPA buffer and the lysate was used for the PDH activity. PDH activity was measured with PDH Activity Assay Kit (MAK183, Sigma-Aldrich) per the manufacturer protocol.

[7] = tested on: sugen/hypoxia PAH model; assay: Western blot of metabolic proteins in lung tissue, sugen/hypoxia PAH model; format: in vivo, rat; details: SU2 rats
Description: For an analysis of the total lung protein, lung tissues were lysed as previously described. Briefly, 20-40 mg of lung tissue (human/rat) was lysed in Permeabilization Buffer mixed with protease and phosphatase inhibitor cocktails using a Fisher Homogenizer 850. The homogenate was centrifuged at 10,000 g for 10 min, and the supernatant was carefully collected. Cell membrane and cytosolic fractions were isolated using FractionPREP™ cell fraction kit (Biovision, Milpitas, Calif.) according to manufacturer's instruction. The protein concentration was measured using the BCA protein assay kit (Thermo Scientific, Rockford, Ill.). Samples were incubated with 6×Laemmli sample buffer (Boston Bioproducts Inc., Ashland, Mass.), for 5 min at 95° C., loaded on the 4-20% SDS-PAGE Mini-PROTEAN TGX Stain-Free™ gels (Bio-Rad Laboratories Inc., Hercules, Calif.) and separated by electrophoresis. Protein bands were transferred using Trans-Blot Turbo transferring system (Bio-Rad Laboratories Inc.) and then blocked with 5% bovine serum albumin in Tris-buffered saline. Membranes were probed using antibodies against Glut 4 (07-1404) from Millipore, pyruvate carboxylase (PC) (Ab229267) & peroxisome proliferator-activated receptor gamma coactivator 1-alpha (PGC-1α) (Ab191838) from Abcam, pyruvate dehydrogenase (PDH) (45-6600) from Invitrogen, phospho Akt (Ser 473) (4060S), Akt (9272S), hexokinase 1 (HK1) (C35C4), glyceraldehyde-3 phosphate dehydrogenase (GAPDH) (2118S), lactate dehydrogenase-A (LDHA) (2012S), phospho glycogen synthase kinase (GSK) 3 β (Ser9) (9336S), GSK3 β(9315S) and glucose 6-phosphate dehydrogenase (G6PD) (8866S) from Cell Signaling Technology. Mouse monoclonal anti-nitrotyrosine antibodies were obtained from Calbiochem, La Jolla, Calif. (487923). Akt Y350 NO2 antibody obtained as a custom-made antibody against Akt1-nitro (341-353) and the sequence was CGRLPF-nitroY-NQDHEK (SEQ ID NO: 2). Two peptides were developed with and without Y350 nitration. The antibody developed against nitrated peptide cleaned using non-nitrated peptide (Akt1 (341-353): […], SEQ ID NO: 3) to remove nonspecific antibodies. Affinity purification was done using large reusable affinity purification columns against the unmodified and nitrated peptides. […] Since the quantification of the Akt nitration is not fully established by mass spectrometry, a common method was used by newly developed antibodies for the quantification of specific Y350 nitration of Akt. The reactive bands were visualized by chemiluminescent ChemiDoc™ MP Imaging System (Bio-Rad Laboratories Inc., Hercules, Calif.) and analyzed using Image Lab™ software. The protein loading was normalized per total sample protein as fold control using stain free gels as previously described. This normalization is equal to housekeeping genes normalization and rigorously evaluated by Bio-Rad company (http://www.bio-rad.com/en-us/applications-technologies/stain-free-imaging-technology?ID=NZ0G1815) and others in comparison with beta-actin normalization.

[8] = target: T2, Akt (Y350 nitration) (Homo sapiens, UniProt P31749); assay: Sin-1 induced Akt nitration assay in HPAECs; format: cell-based; details: 1 μM NP pretreatment 30 min, washed, then SIN-1 1 mM 1 hour
T2 construct: endogenous in cells; host or cells: HPAEC (human pulmonary artery endothelial cells)
Description: Human pulmonary artery endothelial cells (HPAECs) were cultured using an endothelium media specific for HPAEC with 10% FBS. Cells were used from passages 3-6. All experiments were performed on 80-90% confluent cells. Akt nitration was induced by treatment with 3-Morpholinosyndnomine (SIN-1) (1 mM) for 1 hour. NP pretreatment groups were treated with 1 μM NP for 30 min, and then cells were washed in PBS and treated with SIN-1 for 1 hour. All treatments were accompanied by including controls with the corresponding vehicle. After treatment, the cells were washed in PBS and lysed in a RIPA buffer containing protease and phosphatase inhibitor cocktail.
For an analysis of the total lung protein, lung tissues were lysed as previously described. Briefly, 20-40 mg of lung tissue (human/rat) was lysed in Permeabilization Buffer mixed with protease and phosphatase inhibitor cocktails using a Fisher Homogenizer 850. […] The protein concentration was measured using the BCA protein assay kit (Thermo Scientific, Rockford, Ill.). […] Since the quantification of the Akt nitration is not fully established by mass spectrometry, a common method was used by newly developed antibodies for the quantification of specific Y350 nitration of Akt. The reactive bands were visualized by chemiluminescent ChemiDoc™ MP Imaging System (Bio-Rad Laboratories Inc., Hercules, Calif.) and analyzed using Image Lab™ software. […]

[9] = tested on: LDH; details: SU2 rats, NP treatment, lung tissue
Description: Female Sprague Dawley rats (200-250 g) obtained from Charles River (Wilmington, Mass., USA) were used in this study. […] Generally, PAH was induced by a single injection of SU5416 (50 mg/kg) subcutaneously, followed by 3 weeks of hypoxia (10% 02) and 2 weeks of normoxia. This study included five animal groups: control group; SU1, rats were analyzed after 1 week of SU5416 and hypoxia treatment; SU2, rats were analyzed after 2 weeks of SU5416 and hypoxia treatment; SUS, rats were analyzed after 5 weeks of SU5416 treatment (3 weeks of hypoxia with a following 2 weeks of normoxia); and SU2+NP peptide treatment 0.1 mg/kg/day intravenous (i.v.) injection started with SU5416 treatment for two-weeks.
LDH activity in lung tissue was assessed by Lactate Dehydrogenase Activity Colorimetric Assay Kit (K726, BioVision Inc. Calif., USA) according to manufacturer's instruction. All values were normalized with respect to protein concentrations as determined by the Pierce™ BCA Protein Assay Kit (Thermo Scientific, Rockford, Ill.).

[10] = tested on: HPASMCs; assay: Seahorse glycostress assay (ECAR); format: cell-based, human; details: SIN-1 treatment
Description: as §1

[11] = tested on: sugen/hypoxia PAH model; assay: Hemodynamic measurement (RVSP, Fulton index), sugen/hypoxia PAH model; format: in vivo, rat; details: SU2 rats, NP 0.1 mg/kg/day i.v. two-weeks
Description: Animals were anesthetized with inactin 100 mg/kg intraperitoneally (i.p.) (T133, Sigma-Aldrich). A customized pressure transducer catheter (SPR-513, Millar Instruments, Houston, Tex.) was inserted into RV via the right jugular vein and advanced into the right ventricle to monitor right ventricular systolic pressure (RVSP) as described previously. Briefly, the pressure transducer catheter was connected to a Millar Transducer Control Unit TC-510 and PL3504 PowerLab 4/35 data acquisition system (AD Instruments, Colorado Springs, Colo.) to monitor RV pressure for 30-min. After this a tracheal catheter was connected to a ventilator system (Harvard Rodent Ventilator-683; Harvard Apparatus, South Natick, Mass.), the thorax was opened, and the lungs flushed with 0.9% sodium chloride through the right ventricle (RV). Heart and lungs were collected from animals; the RV free wall was separated from the left ventricle (LV), and the septum (5). Fulton index (RV/LV+S ratio) as a parameter of RV hypertrophy was calculated. The total wet lung weight was measured and normalized by the body weight of the animal. The left lung was fixed in formalin and embedded in paraffin for histological examination. The other portion of the lung was stored at −80° C. for further biochemical studies.

[12] = tested on: sugen/hypoxia PAH model; assay: Histological analysis of pulmonary arteries (EVG, Ki-67), sugen/hypoxia PAH model; format: in vivo, rat; details: SU2 rats, NP 0.1 mg/kg/day i.v. two-weeks
Description: For the morphometric assessment of pulmonary vessels 5-μm tissue sections were dewaxed and stained with elastic fibers—Verhoeffs van gieson (EVG) by HistoWiz Inc. (Brooklyn, N.Y.) using standard operating procedures and a fully automated workflow system. Ten transversely sectioned pulmonary arteries (diameter<300 μm) within each category per each animal (N=6 per group) were randomly selected from the whole-slide 40X digitized image Aperio AT2 scanner (Leica Biosystems, Ill.). Immunohistochemistry was performed using standard protocols. The sections were deparaffinized and incubated with primary antibodies against Akt Y350 NO2 (1:100), and Ki67 (1:800) (ab15580 Abcam); Dab Rabbit H1 (pH 6) for 20 min. The morphometric analysis was done by an investigator by a blinded grouping fashion. The wall thickness of the pulmonary artery (PA) was measured using the publicly available software Fiji is just ImageJ (http://fiji.sc/Fiji; in the public domain).

T1 sequence (P47196 whole entry): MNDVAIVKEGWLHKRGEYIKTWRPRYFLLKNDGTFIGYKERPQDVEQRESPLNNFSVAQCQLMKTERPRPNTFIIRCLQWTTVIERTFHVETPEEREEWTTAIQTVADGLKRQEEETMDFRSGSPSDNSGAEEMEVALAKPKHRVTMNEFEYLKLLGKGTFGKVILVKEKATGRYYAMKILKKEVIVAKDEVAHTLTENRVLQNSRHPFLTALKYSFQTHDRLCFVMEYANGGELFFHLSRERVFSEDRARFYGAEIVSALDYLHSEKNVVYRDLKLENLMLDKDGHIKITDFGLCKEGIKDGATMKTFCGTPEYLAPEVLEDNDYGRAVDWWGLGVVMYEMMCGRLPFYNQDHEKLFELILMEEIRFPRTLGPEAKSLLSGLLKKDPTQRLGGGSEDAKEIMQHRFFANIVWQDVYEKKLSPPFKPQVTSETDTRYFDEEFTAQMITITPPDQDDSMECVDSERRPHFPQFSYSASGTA
T2 sequence (P31749 whole entry): as the sequence (P47196 whole entry) above, with N2S, E46D, S50A, R112K, T117E, A137S, T389K, N410G, D415H counted along it

## CC1(C)CC(O)CC(C)(C)N1[O] [TEMPOL]
[1]; recently reported
  preventing pulmonary arterial remodeling: not effective
[1]; sugen/hypoxic PAH model, reported
  right ventricular hypertrophy and pulmonary arterial remodeling: failed to attenuate

## NP: peptide Ser-Arg-IIe-Arg-Ser (SEQ ID NO: 1) with nitroxide (3-Carboxy-2,2,5,5-tetramethyl pyrroline-1-yloxy) covalently attached to the free N-terminal amine
[2]
  metabolites significantly restored by treatment: 30 metabolites
[3]
  basal respiration rate: without affecting
  mitochondrial oxidative phosphorylation rate (OCR): upregulated the oxidative phosphorylation rate to control level
[4]
  nitroAkt modification in the lung tissue: significantly reduced; also recorded: remarkable reduction
[5]; lung lysate
  Phosphorylation of Akt at Ser-473: does not affect
  total Akt expression: did not change
[5]; selectivity toward Akt nitration
  total nitration in lungs: did not significantly alter
[6]
  PDH activity: increased
[7]; NP 0.1 mg/kg/day i.v. two-weeks
  pyruvate carboxylase (PC) expression: decreased
[7]; NP treatment
  G6PD expression: upregulated significantly
  GSK3β expression: reversed
  Glut4 translocation to membrane (membrane/cytosol ratio): attenuated
  LDHA expression: attenuating
  PDH expression: significantly increased
  PGC1α expression: significantly reduced
[8]
  reduction of Akt nitration (Y350): 55%
[9]
  LDHA activity: attenuating
[10]
  Glycolytic capacity: attenuated
  glycolysis (glycolytic rate, ECAR): attenuated this back to control level
[11]
  Fulton index (RV/LV+S), RV hypertrophy: markedly decreased; also recorded: reversed
[11]; SU2 without NP 71.9±3.6, p<0.001
  right ventricular systolic pressure (RVSP): 36.1±2.6
[12]
  EVG staining: perivascular fibrosis, vasoconstriction and proliferation in pulmonary arteries: significantly attenuated
  vascular remodeling and cellular proliferation (Ki-67 staining): effectively prevented

Source: patent US20230073946A1, “AFFINITY PEPTIDE […] A[…] PROTECTION OF PROTEINS FROM OXIDATION” (ARIZONA BOARD OF REGENTS ON BEHALF OF THE UNIVERSITY OF …, priority 2020, published 2023)
